How the values were obtained:
[1] = Pharmacokinetics and renal clearance (Table 3); assay type: in vivo; settings: Table 3, AYA1809002
[2] = target: T1, thrombin (Homo sapiens, UniProt P00734); experiment: Direct thrombin activity inhibition (Thrombin Inhibitor Screening Assay Kit, fluorometric); assay type: biochemical; design: a thrombin enzyme mixture was added to each sample and control well; purchased Abcam ab197007; settings: different aptamer concentrations; AMC substrate, 360/460 nm, 45 min, 37° C.
Protocol: 141. A Thrombin Inhibitor Screening Assay Kit (fluorometric) (Abcam, cat #ab197007, Waltham, Boston, MA, USA) was employed to test the direct binding ability and inhibitory potential of the AYA1809002 and AYA1809004 aptamers against thrombin. The procedure was carried out following the standard protocol provided with the kit. […] Subsequently, a thrombin enzyme mixture was added to each sample and control well. Following an incubation period of 20 min, a substrate mixture was introduced into each sample and control well. Fluorescence measurements were taken using a SYNERGY/HTX multi-mode reader (BioTek, Agilent Technologies, Santa Clara, CA 95051, USA) with the excitation/emission wavelengths set at 360/460 nm. The measurements were recorded for 45 min at a temperature of 37° C. while ensuring protection from light.
155. The direct binding and inhibitory capabilities of AYA1809002 and AYA1809004 ap- tamers on thrombin were evaluated using a Thrombin Inhibitor Screening Assay Kit (fluorometric). The procedure was carried out following the standard protocol provided with the kit. […] The fluorescence intensity is then measured over time to assess the thrombin inhibitory potential of the sample. […] The released AMC is detectable through fluorescence measurement at an excitation/emission wavelength of 360/460 nm.

[3] = target: thrombin over other serine proteases (Homo sapiens, UniProt P00734); experiment: Selectivity for thrombin over other serine proteases (Table 3); assay type: biochemical; settings: Table 3, AYA1809002
[4] = tested on: rat whole blood; experiment: Factor II activity, PT, APPT and TT in rat whole blood; assay type: biochemical; settings: dose-dependent manner
[5] = Onset, consistency and reversal of anticoagulant effect (Table 3); assay type: in vivo; settings: Table 3, AYA1809002
[6] = Storage stability (Table 3); assay type: physicochemical; settings: after 24 months at room temperature
[7] = Major bleeding rate in animal studies (Table 3); assay type: in vivo
[8] = target: T1, thrombin; experiment: Thrombin inhibition IC50 (Table 3); assay type: biochemical; settings: Table 3, AYA1809002

Substance	Renal Clearance [1] [%]	inhibition of thrombin activity [2]	selectivity for thrombin over other serine proteases [3]	APPT in rat whole blood [4]	Factor II activity in rat whole blood [4]	PT in rat whole blood [4]	TT in rat whole blood [4]	Anticoagulant Effect Consistency: inter-individual variability in aPTT prolongation [5] [% inter-individual]	Onset of Action: peak effect [5]	activity maintained on storage [6]	major bleeding rate [7]	IC50 [8] [nM]
AYA1809002: ssDNA thrombin aptamer GCGGTGTTGCTGGGGTTGGGAGGTTGGAGGAAGCAATCGC	<50	dose-dependent inhibition of thrombin activity	>100-fold selectivity	extend	inhibit	extend	extend	<15	Peak effect withing 1 hour	Maintain >95%	(≤2% major bleeding	≤ 0.5
AYA1809004: ssDNA thrombin aptamer TCGTCAAGGTACGGTTGGGGGGGTGGGTGTTGACGTTGAA (DNA, backbone not given here)		dose-dependent inhibition of thrombin activity										

Reference: patent US20250304973A1, “HIGH-AFFINITY THROMBIN APTAMERS AND METHODS OF USE” (Ayass Bioscience LLC, priority 2024, published 2025)
